Assays:
Assay type in all cases: in vivo
[1] = system: AMARE Amaranthus retroflexus; experiment: Post-emergence herbicidal action against harmful plants; settings: one-leaf stage, assessed visually after about 3 weeks vs untreated controls
Excerpt: (§1) The abbreviations used for the harmful plants mean: • ABUTH Abutilon theophrasti ALOMY Alopecurus myosuroides • AVEFA Avena fatua AMARE Amaranthus retroflexus • CYPES Cyperus esculentus DIGSA Digitaria sanguinalis • ECHCG Echinochloa crus-galli HORMU Hordeum murinum • LOLMU Lolium multiflorum LOLRI Lolium rigidum • MATIN Matricaria inodora PHBPU Pharbitis purpurea • POLCO Polygonum convolvulus SETVI Setaria viridis • STEME Stellaria media VERPE Veronica persica • VIOTR Viola tricolor 2. Post-Emergence Herbicidal Action Against Harmful Plants Seeds of monocotyledonous and dicotyledonous weed and crop plants are laid out in sandy loam soil in wood-fiber pots, covered with soil and cultivated in a greenhouse under good growth conditions. 2 to 3 weeks after sowing, the test plants are treated at the one-leaf stage. The compounds of the invention, formulated in the form of wettable powders (WP) or as emulsion concentrates (EC), are then sprayed onto the green parts of the plants in the form of an aqueous suspension or emulsion at a water application rate equivalent to 600 to 800 l/ha, with addition of 0.2% wetting agent. After the test plants have been left to stand in the greenhouse under optimal growth conditions for about 3 weeks, the action of the preparations is assessed visually in comparison to untreated controls (herbicidal action in percent (%): 100% activity=the plants have died, 0% activity=like control plants). […] The tables below illustrate, in an illustrative manner, the post-emergence herbicidal action of the compounds of the invention, the herbicidal activity being stated in percent.

AVEFA Avena fatua = experiment: as above; settings: one-leaf stage, assessed visually after about 3 weeks vs untreated controls
Excerpt: as §1

PHBPU Pharbitis purpurea [2] = experiment: as above; settings: 20 g/ha, one-leaf stage, assessed visually after about 3 weeks vs untreated controls
Excerpt: as §1

[3] = system: DIGSA Digitaria sanguinalis; experiment: as above; settings: one-leaf stage, assessed visually after about 3 weeks vs untreated controls
Excerpt: as §1

[4] = system: POLCO Polygonum convolvulus; experiment: as above; settings: one-leaf stage, assessed visually after about 3 weeks vs untreated controls
Excerpt: as §1

[5] = system: ALOMY Alopecurus myosuroides; experiment: as above; settings: one-leaf stage, assessed visually after about 3 weeks vs untreated controls
Excerpt: as §1

SETVI Setaria viridis [6] = experiment: as above; settings: one-leaf stage, assessed visually after about 3 weeks vs untreated controls
Excerpt: as §1

[7] = system: ABUTH Abutilon theophrasti; experiment: Pre-emergence herbicidal action against harmful plants; settings: 80 g/ha, scored visually after 3 weeks vs untreated controls
Excerpt: (§2) The abbreviations used for the harmful plants mean: • ABUTH Abutilon theophrasti ALOMY Alopecurus myosuroides • AVEFA Avena fatua AMARE Amaranthus retroflexus • CYPES Cyperus esculentus DIGSA Digitaria sanguinalis • ECHCG Echinochloa crus-galli HORMU Hordeum murinum • LOLMU Lolium multiflorum LOLRI Lolium rigidum • MATIN Matricaria inodora PHBPU Pharbitis purpurea • POLCO Polygonum convolvulus SETVI Setaria viridis • STEME Stellaria media VERPE Veronica persica • VIOTR Viola tricolor 1. Pre-Emergence Herbicidal Action Against Harmful Plants Seeds of monocotyledonous and dicotyledonous weed plants and crop plants are laid out in sandy loam soil in wood-fiber pots and covered with soil. The compounds of the invention, formulated in the form of wettable powders (WP) or as emulsion concentrates (EC), are then applied to the surface of the covering soil in the form of an aqueous suspension or emulsion at a water application rate equivalent to 600 to 800 l/ha, with addition of 0.2% wetting agent. After the treatment, the pots are placed in a greenhouse and kept under good growth conditions for the trial plants. The damage to the test plants is scored visually after a test period of 3 weeks by comparison with untreated controls (herbicidal activity in percent (%): 100% activity=the plants have died, 0% activity=like control plants). […] The tables below illustrate, in an illustrative manner, the post-emergence herbicidal action of the compounds of the invention, the herbicidal activity being stated in percent.

[8] = system: AMARE Amaranthus retroflexus; experiment: as above; settings: scored visually after 3 weeks vs untreated controls
Excerpt: as §2

[9] = system: ECHCG Echinochloa crus-galli; experiment: as above; settings: scored visually after 3 weeks vs untreated controls
Excerpt: as §2

MATIN Matricaria inodora [10] = experiment: as above; settings: scored visually after 3 weeks vs untreated controls
Excerpt: as §2

PHBPU Pharbitis purpurea [11] = experiment: as above; settings: 80 g/ha, scored visually after 3 weeks vs untreated controls
Excerpt: as §2

[12] = system: DIGSA Digitaria sanguinalis; experiment: as above; settings: scored visually after 3 weeks vs untreated controls
Excerpt: as §2

[13] = system: POLCO Polygonum convolvulus; experiment: as above; settings: 80 g/ha, scored visually after 3 weeks vs untreated controls
Excerpt: as §2

[14] = system: ALOMY Alopecurus myosuroides; experiment: as above; settings: 80 g/ha, scored visually after 3 weeks vs untreated controls
Excerpt: as §2

SETVI Setaria viridis [15] = experiment: as above; settings: 80 g/ha, scored visually after 3 weeks vs untreated controls
Excerpt: as §2

[16] = system: ABUTH Abutilon theophrasti; experiment: Post-emergence herbicidal action against harmful plants; settings: one-leaf stage, assessed visually after about 3 weeks vs untreated controls
Excerpt: as §1

VERPE Veronica persica = experiment: as above; settings: one-leaf stage, assessed visually after about 3 weeks vs untreated controls
Excerpt: as §1

MATIN Matricaria inodora [17] = experiment: as above; settings: one-leaf stage, assessed visually after about 3 weeks vs untreated controls
Excerpt: as §1

SMILES | Post-emergence action at 20 g/ha against AMARE in % [1] [%] | Post-emergence action at 20 g/ha against PHBPU in % (PHBPU Pharbitis purpurea [2]) [%] | Post-emergence action at 20 g/ha against DIGSA in % [3] [%] | Pre-emergence action at 80 g/ha against ABUTH in % [7] [%] | Pre-emergence action at 20 g/ha against AMARE in % [8] [%] | Pre-emergence action at 80 g/ha against AMARE in % [8] [%] | Pre-emergence action at 80 g/ha against ECHCG in % [9] [%] | Pre-emergence action at 20 g/ha against MATIN in % (MATIN Matricaria inodora [10]) [%] | Pre-emergence action at 80 g/ha against MATIN in % (MATIN Matricaria inodora [10]) [%] | Pre-emergence action at 80 g/ha against PHBPU in % (PHBPU Pharbitis purpurea [11]) [%] | Pre-emergence action at 20 g/ha against DIGSA in % [12] [%] | Pre-emergence action at 80 g/ha against DIGSA in % [12] [%] | Pre-emergence action at 80 g/ha against POLCO in % [13] [%] | Pre-emergence action at 80 g/ha against ALOMY in % [14] [%] | also measured
Cc1c(C(=O)Nc2nnnn2C)cc(Cl)c(C(F)(F)F)c1C(=O)NC1CC1 [Example 1-85] | 80 | 80 | 90 | 100 | 100 | 100 | 80 | 80 | 100 | 80 | 100 | 100 | 80 | 80 | Post-emergence action at 20 g/ha against AVEFA in % (AVEFA Avena fatua): 80%; Post-emergence action at 20 g/ha against POLCO in % [4]: 80%; Post-emergence action at 20 g/ha against ALOMY in % [5]: 80%; Post-emergence action at 20 g/ha against SETVI in % (SETVI Setaria viridis [6]): 80%; Pre-emergence action at 80 g/ha against SETVI in % (SETVI Setaria viridis [15]): 100%
CCN(C)C(=O)c1c(C(F)(F)F)cc(F)c(C(=O)Nc2nnnn2CC)c1C [Example 2-96] | 90 | 90 | 90 | 90 | 100 | 100 | 80 | 80 | 90 | 80 | 80 | 90 | 80 | 80 | Post-emergence action at 20 g/ha against ABUTH in % [16]: 80%; Post-emergence action at 5 g/ha against AMARE in % ([1]; 5 g/ha): 80%; Post-emergence action at 20 g/ha against VERPE in % (VERPE Veronica persica): 80%; Post-emergence action at 20 g/ha against MATIN in % (MATIN Matricaria inodora [17]): 80%
